Measurements: patent US20020120098A1, “Enhanced stimulation of erythropoiesis” (priority 1996, published 2002)

Legend:
[1] = tested on: erythroid colonies; assay: Hemoglobin production by erythroid colonies, anion exchange HPLC; type: cell-based, human; conditions: 5% O2, 2 U/ml Epo; for adult Hb / fetal Hb / total Hb: 100 μM hemin, 1.0 mg/ml HAo or HEMOLINK, 250 μM FeCl3; for adult Hb per cell / fetal Hb per cell / total Hb per cell: estimated assuming 30,000 cells/BFU-E and 100 cells/CFU-E
Description: Hemoglobin synthesis in erythroid colonies was analyzed by anion exchange high performance liquid chromatography (HPLC). Colonies were harvested from CFA plates and cell lysates were prepared after the progenitor colonies had been enumerated. Colonies were isolated from methyl cellulose by several washes in PBS. The cells were pelleted and lysed in 50 mM Tris, pH 8.8 and the cell debris removed by pelleting the cell lysate. The lysate supernatants were filtered through a 0.2 ,μm filter prior to loading onto a POROS® HQ/H anion exchange HPLC column (PerSeptive Biosystems). The hemoglobin was eluted with an increasing NaCl gradient and the optical density (O.D.) monitored at a wavelength of 414 nm The amount of hemoglobin present in the lysates was quantitated by comparison with standard hemoglobin solutions of adult (HbA) and fetal hemoglobin (HbF).
Representative HPLC profiles for hemoglobin produced by erythroid colonies that formed at 5% O2 in the presence of 2 U/ml Epo with no addition (vehicle only), 100 μM hemin, 1.0 mg/ml HAo (15.6 μM) HAo, 1.0 mg/ml HEMOLINK™ (15.6 μM), or 250 μM FeCl3 are shown in FIG. 7.

[2] = tested on: CFU-GM; assay: Colony formation assay (CFA), cord blood LDMNC: CFU-GM colonies; type: cell-based, human; conditions: 2 U/ml Epo; for effect on CFU-GM numbers (in words): ambient O2; for CFU-GM progenitor number, fold increase: ambient O2, vs vehicle control
Description: This technique, referred to as the colony formation assay (CFA), is the most widely used biological assay to identify and enumerate erythroid progenitors present in hematopoietic tissue such as blood and bone marrow. Cell populations containing erythroid progenitors are plated in semi-solid suspensions of methyl cellulose, agar, low melting agarose or related substances in nutrient culture medium containing 1-3 U/ml Epo and 10 ng/ml IL-3 to specifically stimulate erythroid progenitors. Plates are incubated at 37° C. for 14 days during which time the erythroid progenitors form characteristic hemoglobinized (red) colonies. Two distinct but related erythroid progenitors can be distinguished based on colony size and morphology: BFU-E, the most primitive recognizable erythroid progenitor forms large multilobular colonies whereas the more mature CFU-E forms smaller spherical colonies.
Adult hemoglobin was purified according to U.S Pat. Nos. 5,439,591 and 5,545,328 to obtain HAo and HEMOLINK™ was prepared from HAo according to U.S. Pat. No. 5,532,352. Human umbilical cord blood intended for discard was collected from the umbilical vein of placentas immediately postpartum into 10 ml vacutainer tubes containing 143 USP units/ml sodium heparin. Low density mononuclear cells were separated from red blood cells by centrifugation over a 1.077 g/ml density gradient Cells removed from the plasma/density gradient interface were incubated overnight in a tissue culture flask with 10 ml cell culture medium containing 10% fetal bovine serum, and non-adherent LDMNC were further purified with an additional density gradient step. The LDMNC were then plated into colony formation assays (CFA) on the second day of isolation. In the CFA, LDMNC were plated at a density of 1×10^5 cells/ml in Iscoves modified Dulbeccos cell culture medium containing 0.8% methyl-cellulose, 30% fetal bovine serum, 1% bovine serum albumin, 0.1 mM 2-mercaptoethanol and 2 mM L-glutamine. Unless indicated otherwise, under standard CFA conditions 2 U/ml Epo and 10 ng/ml IL-3 are added to the formulation to stimulate hematopoietic progenitor growth, specifically BFU-E, CFU-E and CFU-GM.
Each condition was tested in duplicate in from 2-18 independent experiments. Cultures were maintained in a humidified incubator at 37° C., 5% CO2 and ambient oxygen tensions. The number of hematopoietic progenitors was scored between days 13-15 by counting the number and types of colonies present.
The effect of the various additives on the inhibitory effect of succinylacetone (SA), a heme synthesis inhibitor, on erythroid progenitors was determined. Primary LDMNC were cultured in methyl cellulose as described in Example 1. Cord blood LDMN were plated in the presence of 1.0 mg/ml HAo (15.6 μM; n=12) or HEMOLINK™ (15.6 μM; n=5), 100 μM hemin (n=12), 250 μM FeCl3 (n=11) or no addition (n=12), in absence or presence of 0.5 mM SA. Cultures were maintained in a humidified chamber at 37° C., 5% CO2, and ambient oxygen tensions for 14 days.
HEMOLINK™ was evaluated for its ability to protect erythroid progenitor cells from toxicity due to ganciclovir. Cord blood LDMNC were set up in CFAs in the presence and absence of 1 mg/ml HEMOLINK™ plus 0, 0.1, 1.0, 10, 50 or 100 μM ganciclovir. Conditions for the CFA were similar to those described in Examples 1-4. […] All data are expressed relative to the number of colonies of control plates without HEMOLINK™. The hematopoietic progenitors display different sensitivities to ganciclovir. CFU-E were unaffected by 1 μM ganciclovir. However, a similar inhibition of BFU-E occurs at a 50-fold lower dose of ganciclovir (1 μM). […] Due to the difficulty in scoring CFU-GM in the presence of hemoglobin precipitates, as previously noted, they could not be accurately measured under these conditions. Thus, HEMOLINK™ reduces toxicity of ganciclovir to erythroid progenitors with the most pronounced effect on BFU-E cells.

[3] = dose 1000 μg/ml, underestimated due to hemoglobin precipitates

[Cl][Fe]([Cl])[Cl] [FeCl3]
adult Hb [1]: 5.0 µg | fetal Hb [1]: 9.5 µg | total Hb [1]: 14.5 µg | adult Hb per cell [1]: 0.14 pg/cell | fetal Hb per cell [1]: 0.26 pg/cell | total Hb per cell [1]: 0.40 pg/cell | effect on CFU-GM numbers (in words) [2]: unaffected | CFU-GM progenitor number, fold increase ([2]; dose 1.0 μM): 1.2 fold | CFU-GM progenitor number, fold increase ([2]; dose 10 μM): 1.0 fold | CFU-GM progenitor number, fold increase ([2]; dose 100 μM): 0.8 fold | CFU-GM progenitor number, fold increase ([2]; dose 250 μM): 1.3 fold

C=CC1=C(C)C2=Cc3c(C=C)c(C)c4[n]3[Fe-2]35([Cl])[n]6c(c(C)c(CCC(=O)O)c6=CC6=[N+]3C(=C4)C(C)=C6CCC(=O)O)=CC1=[N+]25 [hemin]
adult Hb [1]: 8.7 µg | fetal Hb [1]: 19.4 µg | total Hb [1]: 28.1 µg | adult Hb per cell [1]: 0.14 pg/cell | fetal Hb per cell [1]: 0.32 pg/cell | total Hb per cell [1]: 0.46 pg/cell | effect on CFU-GM numbers (in words) [2]: unaffected | CFU-GM progenitor number, fold increase ([2]; dose 1.0 μM): 1.5 fold | CFU-GM progenitor number, fold increase ([2]; dose 10 μM): 1.4 fold | CFU-GM progenitor number, fold increase ([2]; dose 64 μM): 1.2 fold | CFU-GM progenitor number, fold increase ([2]; dose 100 μM): 1.0 fold | CFU-GM progenitor number, fold increase ([2]; dose 250 μM): 1.4 fold

HAo: adult human hemoglobin obtained from red blood cells and purified by displacement chromatography; uncross linked product
adult Hb [1]: 22.6 µg | fetal Hb [1]: 33.1 µg | total Hb [1]: 55.7 µg | adult Hb per cell [1]: 0.37 pg/cell | fetal Hb per cell [1]: 0.54 pg/cell | total Hb per cell [1]: 0.91 pg/cell | effect on CFU-GM numbers (in words) [2]: does not stimulate CFU-GM | CFU-GM progenitor number, fold increase ([2]; dose 10 μg/ml): 1.4 fold | CFU-GM progenitor number, fold increase ([2]; dose 100 μg/ml): 1.5 fold | CFU-GM progenitor number, fold increase ([2]; dose 500 μg/ml): 1.2 fold | CFU-GM progenitor number, fold increase [2, 3]: **0.5 fold

HEMOLINK™: chemically crosslinked hemoglobin prepared by treating human hemoglobin with a polyaldehyde (O-raffinose)
adult Hb [1]: 20.5 µg | fetal Hb [1]: 28.0 µg | total Hb [1]: 48.5 µg | adult Hb per cell [1]: 0.38 pg/cell | fetal Hb per cell [1]: 0.51 pg/cell | total Hb per cell [1]: 0.89 pg/cell | CFU-GM progenitor number, fold increase [2, 3]: *0.6 fold
